Experimental data published in patent US12285012B2, “Compositions comprising pyridine carboxylate herbicides with acetolactate synthase (ALS) inhibitor herbicides” (Corteva Agriscience LLC, priority 2018, dated 2025).
Where two headings read alike, the source gives them in different places.

Tests used:
[1] = system: wild mustard (SINAR, Sinapis arvensis); test: Greenhouse postemergence herbicidal effect; format: in vivo
Experimental: (§1) The plants were grown for 7-36 days (d) in a greenhouse with an approximate 14-hour (h) photo-period which was maintained at about 23° C. during the day and 22° C. during the night. Nutrients and water were added on a regular basis and supplemental lighting was provided with overhead metal halide 1000-Watt lamps as necessary. The plants were employed for testing when they reached the second or third true leaf stage.
(§2) The emulsifiable concentrates also included a safener, cloquintocet-mexyl, at 120 grams active ingredient per liter (g ai/L), unless otherwise noted below.
(§3) Control plants were sprayed in the same manner with the solvent blank. All pyridine carboxylate herbicide (component a) application rates are given as “g ae/ha” and all ALS inhibitor (component b) application rates are given as “g ai/ha.”
(§4) The treated plants and control plants were placed in a greenhouse as described above and watered by sub-irrigation to prevent wash-off of the test compounds. After 20-22 d, the condition of the test plants as compared with that of the control plants was determined visually and scored on a scale of 0 to 100 percent where 0 corresponds to no injury and 100 corresponds to complete kill.

[2] = system: wild pansy (VIOTR, Viola tricolor); test: Greenhouse postemergence herbicidal effect; format: in vivo; conditions: for Obs % visual injury: VIOTR
Experimental: as §1, §2, §3, §4

[3] = system: Canadian thistle (CIRAR, Cirsium arvense); test: Greenhouse postemergence herbicidal effect; format: in vivo; conditions: for Obs % visual injury: CIRAR
Experimental: as §1, §2, §3, §4

[4] = system: wild buckwheat (POLCO, Polygonum convolvulus); test: Greenhouse postemergence herbicidal effect; format: in vivo; conditions: for Obs % visual injury: POLCO
Experimental: as §1, §2, §3, §4

[5] = system: spring rape (BRSNN, Brassica napus); test: Greenhouse postemergence herbicidal effect; format: in vivo
Experimental: as §1, §2, §3, §4

[6] = system: wild chamomile (MATCH, Matricaria chamomilla); test: Greenhouse postemergence herbicidal effect; format: in vivo
Experimental: as §1, §2, §3, §4

[7] = system: pigweed (AMARE, Amaranthus retroflexus); test: Greenhouse postemergence herbicidal effect; format: in vivo; conditions: for Obs % visual injury: AMARE
Experimental: as §1, §2, §3, §4

[8] = system: winter rape (BRSNW, Brassica napus); test: Greenhouse postemergence herbicidal effect; format: in vivo
Experimental: as §1, §2, §3, §4

[9] = system: kochia (KCHSC, Kochia scoparia); test: Greenhouse postemergence herbicidal effect; format: in vivo; conditions: for Obs % visual injury: KCHSC
Experimental: (§5) Seeds of the desired test plant species were planted in a 90:10% v/v (volume/volume) mixture of PRO-MIX® BX (Premier Tech Horticulture, Quakertown, PA, USA) and PROFILE® GREENS GRADE™ (Profile Products LLC, Buffalo Grove, IL, USA) planting mixture, which typically has a pH of 5.2 to 6.2 and an organic matter content of at least 50 percent, in plastic pots with a surface area of 103.2 square centimeters (cm^2). […] The plants were grown for 7-36 days (d) in a greenhouse with an approximate 14-hour (h) photo-period which was maintained at about 23° C. during the day and 22° C. during the night. Nutrients and water were added on a regular basis and supplemental lighting was provided with overhead metal halide 1000-Watt lamps as necessary. The plants were employed for testing when they reached the second or third true leaf stage.
(§6) Emulsifiable concentrates of each of each pyridine carboxylate herbicide (Compound A or Compound B) were prepared at 100 grams acid equivalent per liter (g ae/L). The emulsifiable concentrates also included a safener, cloquintocet-mexyl, at 120 grams active ingredient per liter (g ai/L), unless otherwise noted below. An aliquot of each emulsifiable concentrate was placed in a 25 mL glass vial and diluted with an aqueous mixture of 1.25% (v/v) ACTIROB® B esterified rapeseed oil (Bayer Crop Science, Research Triangle Park, NC, USA) or MSO® Concentrate with LECI-TECH® methylated soybean oil (Loveland Products, Loveland, CO, USA) to obtain concentrated stock solutions at the highest application rate for each herbicide, based upon a 12 milliliter (mL) application volume at a rate of 187 liters per hectare (L/ha). The concentrated stock solutions were further diluted with an aqueous mixture of 1.25% v/v ACTIROB® B or MSO® Concentrate with LECI-TECH® to obtain stock solutions at reduced application rates for each herbicide. Spray solutions of the herbicide combinations (Compound A or Compound B plus ALS herbicide) were prepared by adding weighed amounts or aliquots of the ALS herbicides to the stock solutions of Compound A or Compound B to form 12-mL spray solutions in two- or three-way combinations.
(§7) The spray solutions were applied to the plant material with an overhead Mandel track sprayer equipped with 8002E nozzles calibrated to deliver 187 L/ha over an application area of 0.503 square meters (m^2) at a spray height of 18 inches (43 centimeters (cm)) above the average plant canopy. Control plants were sprayed in the same manner with the solvent blank. All pyridine carboxylate herbicide (component a) application rates are given as “g ae/ha” and all ALS inhibitor (component b) application rates are given as “g ai/ha.”
as §4

[10] = system: common lambsquarters (CHEAL, Chenopodium album L.); test: Greenhouse postemergence herbicidal effect; format: in vivo; conditions: for Obs % visual injury: CHEAL
Experimental: as §5, §6, §7, §4

[11] = system: Russian thistle (SASKR, Salsola kali); test: Greenhouse postemergence herbicidal effect; format: in vivo
Experimental: as §1, §2, §3, §4

[12] = system: chickweed (STEME, Stellaria media); test: Greenhouse postemergence herbicidal effect; format: in vivo; conditions: STEME
Experimental: as §1, §2, §3, §4

[13] = system: broad-leaf dock (RUMOB, Rumex obtusifolius); test: Greenhouse postemergence herbicidal effect; format: in vivo; conditions: RUMOB
Source text: (§8) Seeds of the desired test plant species were planted in a 90:10% v/v (volume/volume) mixture of PRO-MIX® BX (Premier Tech Horticulture, Quakertown, PA, USA) and PROFILE® GREENS GRADE™ (Profile Products LLC, Buffalo Grove, IL, USA) planting mixture, which typically has a pH of 5.2 to 6.2 and an organic matter content of at least 50 percent, in plastic pots with a surface area of 103.2 square centimeters (cm^2). In some aspects, to ensure good germination and healthy plants, a fungicide treatment and/or other chemical or physical treatment was applied. The plants were grown for 7-36 days (d) in a greenhouse with an approximate 14-hour (h) photo-period which was maintained at about 23° C. during the day and 22° C. during the night. Nutrients and water were added on a regular basis and supplemental lighting was provided with overhead metal halide 1000-Watt lamps as necessary. The plants were employed for testing when they reached the second or third true leaf stage.
as §6, §7, §4

[14] = system: large crabgrass (DIGSA, Digitaria sanguinalis); test: Greenhouse postemergence herbicidal effect; format: in vivo; conditions: DIGSA
Source text: as §8, §6, §7, §4

spring wheat (TRZAS) = format: in vivo, Triticum aestivum; conditions: for Obs % visual injury: TRZAS
Experimental: as §1, §2, §3, §4

spring barley (HORVS) = format: in vivo, Hordeum vulgare; conditions: for Obs % visual injury: HORVS
Experimental: as §1, §2, §3, §4

Molecule: COc1cc(OC)nc(NC(=O)NS(=O)(=O)N(C)S(C)(=O)=O)n1 [Amidosulfuron, amidosulfuron]
- % visual injury ([1]; Amidosulfuron 45 g/ha): 82%
- % visual injury, Obs ([2]; 22.5 g/ha): 18%
- % visual injury ([3]; Amidosulfuron 45 g/ha): 18%
- pest or weed control at 22.5 g/ha ([3]; Cirsium arvense, post-emergence, 22.5 g/ha, read-out: % visual injury, Obs): 15%
- % visual injury ([4]; Amidosulfuron 45 g/ha): 55%
- % visual injury, Obs ([5]; 22.5 g/ha): 98%
- % visual injury ([6]; Amidosulfuron 45 g/ha): 50%
- % visual injury ([7]; Amidosulfuron 45 g/ha): 100%
- % visual injury ([8]; Amidosulfuron 45 g/ha): 98%
- % visual injury ([9]; Amidosulfuron 45 g/ha): 5%
- pest or weed control at 22.5 g/ha ([9]; Bassia scoparia, post-emergence, 22.5 g/ha, read-out: % visual injury, Obs): 15%
- % visual injury ([10]; Amidosulfuron 45 g/ha): 25%

Molecule: COc1cc(OC)nc(NC(=O)NS(=O)(=O)Cc2ccccc2C(=O)O)n1 [Bensulfuron, bensulfuron]
- Obs % visual injury ([2]; Bensulfuron 16 g/ha): 8%
- % visual injury, Obs ([11]; 16 g/ha): 0%
- Obs % visual injury ([3]; Bensulfuron 16 g/ha): 20%
- Obs % visual injury ([12]; Bensulfuron 16 g/ha): 8%
- Obs % visual injury ([4]; Bensulfuron 16 g/ha): 80%
- % visual injury, Obs ([6]; 16 g/ha): 38%
- Obs % visual injury ([7]; Bensulfuron 16 g/ha): 20%
- % visual injury, Obs ([9]; 16 g/ha): 5%
- Obs % visual injury ([9]; Bensulfuron 16 g/ha): 20%
- % visual injury, Obs ([10]; 16 g/ha): 10%
- Obs % visual injury ([10]; Bensulfuron 16 g/ha): 10%
- Obs % visual injury ([13]; Bensulfuron 16 g/ha): 60%
- Obs % visual injury ([14]; Bensulfuron 16 g/ha): 0%

Molecule: pyriminobac
- Obs % visual injury ([2]; Pyriminobac methyl 30 g/ha): 5%
- Obs % visual injury ([3]; Pyriminobac methyl 30 g/ha): 8%
- Obs % visual injury ([12]; Pyriminobac methyl 30 g/ha): 15%
- Obs % visual injury ([4]; Pyriminobac methyl 30 g/ha): 80%
- Obs % visual injury ([7]; Pyriminobac methyl 30 g/ha): 93%
- Obs % visual injury ([9]; Pyriminobac methyl 30 g/ha): 33%
- Obs % visual injury ([10]; Pyriminobac methyl 30 g/ha): 20%
- Obs % visual injury ([13]; Pyriminobac methyl 30 g/ha): 65%
- Obs % visual injury ([14]; Pyriminobac methyl 30 g/ha): 0%
- Obs % visual injury (spring wheat (TRZAS); Pyriminobac methyl 30 g/ha): 0%

Molecule: CON=C(C)c1cccc(Oc2nc(OC)cc(OC)n2)c1C(=O)O (mixture of isomers) [Pyriminobac, pyriminobac]
- % visual injury, Obs ([1]; 17.5 g/ha): 5%
- % visual injury, Obs ([11]; 17.5 g/ha): 0%
- pest or weed control at 17.5 g/ha ([3]; Cirsium arvense, post-emergence, read-out: % visual injury, Obs): 0%
- % visual injury, Obs ([5]; 17.5 g/ha): 0%
- % visual injury, Obs ([6]; 17.5 g/ha): 5%
- pest or weed control at 17.5 g/ha ([9]; Bassia scoparia, post-emergence, read-out: % visual injury, Obs): 0%
- % visual injury, Obs ([10]; 17.5 g/ha): 5%
- % visual injury, Obs (spring wheat (TRZAS); 17.5 g/ha): 0%
- % visual injury, Obs (spring barley (HORVS); 17.5 g/ha): 0%

Molecule: imazamethabenz
- % visual injury ([1]; Imazamethabenz 100 g/ha): 68%
- Obs % visual injury ([1]; SINAR, Imazamethabenz 200 g/ha): 75%
- % visual injury ([11]; Imazamethabenz 100 g/ha): 0%
- Obs % visual injury ([11]; SASKR, Imazamethabenz 100 g/ha): 13%
- Obs % visual injury ([3]; Imazamethabenz 100 g/ha): 5%
- Obs % visual injury ([3]; Imazamethabenz 200 g/ha): 5%
- % visual injury ([3]; Imazamethabenz 100 g/ha): 0%
- % visual injury ([4]; Imazamethabenz 100 g/ha): 70%
- Obs % visual injury ([4]; Imazamethabenz 200 g/ha): 88%
- % visual injury ([6]; Imazamethabenz 100 g/ha): 0%
- Obs % visual injury ([6]; MATCH, Imazamethabenz 200 g/ha): 5%
- Obs % visual injury ([7]; Imazamethabenz 200 g/ha): 5%
- % visual injury ([7]; Imazamethabenz 100 g/ha): 0%
- Obs % visual injury ([8]; BRSNW, Imazamethabenz 200 g/ha): 53%
- % visual injury ([8]; Imazamethabenz 100 g/ha): 35%
- % visual injury ([9]; Imazamethabenz 100 g/ha): 0%
- Obs % visual injury ([9]; Imazamethabenz 200 g/ha): 0%
- Obs % visual injury ([10]; Imazamethabenz 100 g/ha): 0%
- Obs % visual injury ([10]; Imazamethabenz 200 g/ha): 0%
- % visual injury ([10]; Imazamethabenz 100 g/ha): 0%
- % visual injury (spring wheat (TRZAS); Imazamethabenz 100 g/ha): 0%
- Obs % visual injury (spring wheat (TRZAS); Imazamethabenz 100 g/ha): 0%
- Obs % visual injury (spring wheat (TRZAS); Imazamethabenz 200 g/ha): 0%
- Obs % visual injury (spring barley (HORVS); Imazamethabenz 100 g/ha): 0%
- Obs % visual injury (spring barley (HORVS); Imazamethabenz 200 g/ha): 0%
- % visual injury (spring barley (HORVS); Imazamethabenz 100 g/ha): 0%
